These results are taken from PMC9472817, “Structural and functional characterisation of a stable, broad-specificity multimeric sialidase from the oral pathogen Tannerella forsythia” (Biochemical Journal, 2022).

Test [1] addresses T1, NanH-D237A (Tannerella forsythia, UniProt G8UIQ1, D224A).
T1 construct: gene BFO_2207; C-terminally hexahistidine-tagged NanH
T1 sequence (G8UIQ1 21-539 D224A): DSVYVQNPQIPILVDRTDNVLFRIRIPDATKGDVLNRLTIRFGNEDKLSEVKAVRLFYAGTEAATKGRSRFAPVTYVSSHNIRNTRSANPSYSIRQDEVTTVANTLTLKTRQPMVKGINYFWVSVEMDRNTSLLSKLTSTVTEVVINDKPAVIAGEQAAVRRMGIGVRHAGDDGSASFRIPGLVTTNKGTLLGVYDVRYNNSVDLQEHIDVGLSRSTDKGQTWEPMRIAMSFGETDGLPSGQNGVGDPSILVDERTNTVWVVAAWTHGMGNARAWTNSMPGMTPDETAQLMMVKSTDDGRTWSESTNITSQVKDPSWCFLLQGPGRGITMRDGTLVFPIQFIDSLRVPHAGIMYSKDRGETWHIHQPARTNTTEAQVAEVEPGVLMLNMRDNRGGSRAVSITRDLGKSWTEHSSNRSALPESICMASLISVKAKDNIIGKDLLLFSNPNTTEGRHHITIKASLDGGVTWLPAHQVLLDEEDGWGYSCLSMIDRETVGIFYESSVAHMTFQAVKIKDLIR
The test is described as follows: crystal structure ([…] soak, […] Å) and tryptophan fluorescence quenching. It is filed as binding.

Test [2] has as its target T1, NanH-D237A. Described as above. It is filed as binding. This is another data set of the same source.

SMILES strings stand for the structures. Read-outs that look alike come from different tables or passages of the source.

In general, Kd refers to the concentration at which binding is half-saturated. Read a high Kd as weaker binding. For the molecule `CC(=O)N[C@H]1[C@H]([C@H](O)[C@H](O)CO)O[C@@](O[C@H]2[C@@H](O)[C@@H](CO)O[C@@H](O[C@H]3[C@H](O)[C@@H](O)C(O)O[C@@H]3CO)[C@@H]2O)(C(=O)O)C[C@@H]1O` (some centres unmarked) [3-SL], the Kd in test [1] was determined as 305 ± 91.5 µM. For `CC(=O)N[C@H]1[C@H]([C@H](O)[C@H](O)CO)O[C@@](OC[C@H]2O[C@@H](O[C@H]3[C@H](O)[C@@H](O)C(O)O[C@@H]3CO)[C@H](O)[C@@H](O)[C@H]2O)(C(=O)O)C[C@@H]1O` (some centres unmarked) [6-SL], the affinity in test [2], expressed as Kd, was 133 ± 48.3 µM.
